Reference: US20120232062A1, “AZAINDAZOLES TO TREAT FLAVIVIRIDAE VIRUS INFECTION” (EIGER BIOPHARMACEUTICALS, INC., priority 2009, published 2012)
Like-named read-outs stand apart in the source and are kept apart here.

Columns and labels:
[1] = In vivo rat pharmacokinetic studies; details: for concentration in liver, fold above the EC50: rat liver after PO 20 or 40 mpk, for qd dosing
Excerpt: In vivo rat pharmacokinetic studies are designed to measure bioavailability, tissue distribution and metabolite identification in rats after intravenous (IV) and oral (PO) dosing. A full PK study typically includes two study arms (IV and PO) and takes serial blood samples from multiple animals per compound. The assay as described in this example was developed by BioDuro, a corporation of China with its principal office located at Building E, No. 29 Life Science Park Road, Changping District, Beijing, 102206, P.R. China.
Each compound was singly dosed both IV (1 mpk (mg/kg) to rats 1-3) and PO (20 or 40 mpk to rats 4-18), followed by blood draws and liver concentration studies (for PO dosed rats) from each animal at each time point.

CYP 2C19 = target: T1, CYP 2C19 (Homo sapiens, UniProt P33261); experiment: CYP inhibition testing, CYP 2C19; type: in vitro ADME; details: human liver microsomes; >75 = low level of inhibition
T1 construct: For human liver microsome solution, a stock solution (20 mg/mL (4×final)) is used; from tissue; host or cells: human liver microsomes
Description: Select compounds are tested for CYP inhibition against five different CYP enzymes: CYP 1A2, CYP 2C9, CYP 2C19, CYP 2D6, CYP 3A4. Individual CYP enzymes are incubated with corresponding substrates with no inhibitor (negative control). Individual CYP enzymes are then incubated with corresponding substrates in the presence of test compound. […] Values of 70>v, w, x, y, z>30 indicate moderate level of inhibition of the corresponding enzyme.
The following reagents are used: Sodium Phosphate, monobasic; Sodium Phosphate, dibasic; β-Nicotinamide Adenine Dinucleotide Phosphate-Reduced (NADPH), Roche; Milli-Q Water; 0.1 M Potassium phosphate buffer (K-buffer), pH 7.4. The following stock solutions are used. Stock A (136.5 g of monobasic potassium phosphate in 1 L of Milli-Q water (1.0 M)). Stock B (174.2 g of dibasic potassium phosphate in 1 L of Milli-Q water (1.0 M)). 40.5 mL of Stock B is mixed with 9.5 mL of Stock A, and the total volume brought near 500 mL with Milli-Q water to give 0.1 M potassium phosphate buffer. The buffer is titrated with KOH or H3PO4 to pH 7.4. To prepare a cofactor buffer (4×, 8 mM NADPH), 66.7 mg of NADPH tetrasodium salt is dissolved in 10 mL of K-buffer. For human liver microsome solution, a stock solution (20 mg/mL (4×final)) is used.
The following Positive control stock solutions are prepared: 0.3 mM α-Naphthoflavone (MW: 272.3, 0.0817 mg of α-Naphthoflavone in 1 mL DMSO), 10 mM Sulfaphenazole (MW: 314.4, 3.14 mg of sulfaphenazole in 1 mL DMSO) 100 mM Omeprazole (MW: 345.4, 34.54 mg of omeprazole in 1 mL DMSO), 2.5 mM Quinidine (MW: 324, 0.81 mg of quinidine in 1 mL DMSO), and 2.5 mM Ketoconazole (MW: 531.4, 1.33 mg of ketoconazole in 1 mL DMSO).
The following substrate stock solutions are prepared: 6 mM Phenacetin (MW: 179.22, 1.075 mg of phenacetin in 1 mL can), 10 mM Diclofenac (MW: 318.83, 3.18 mg of Diclofenac in 1 ml H2O), 35 mM S-Mephenyloin (MW: 218.25, 7.64 mg of s-mephenyloin in 1 mL ACN 10 mM Bufuralol (MW: 297.82, 2.98 mg of Bufuralol in 1 ml H2O), 1 mM Midazolam (MW: 325.77, 0.326 mg of midazolam in 1 mL can), and 10 mM Testosterone (MW: 288.42, 2.88 mg of Testosterone in 1 ml ACN.
Test compounds and reference compounds (positive control) are prepared in 0.2 mg/ml liver microsome solution. A 0.2 mg/ml liver microsome solution (2×final) is prepared from stock solution by adding 10 μL microsome stock solutions (20 mg/ml) in 990 μL K-buffer. 8 μL of 10 mM test compound stock solution (in DMSO or other solvent at various concentrations) is diluted with 12 μL ACN to make 4 mM solutions. 1:3 serial dilutions are performed using DMSO/ACN (40:60) from 4 mM solution further down seven concentration points (400×final): 4 mM, 1.33 mM, 0.44 mM, 0.148 mM, […], 0.0165 mM, 0.00549 mM, 0 mM. […]

[2] = 20 mg/kg, rat, PO 20 mpk, liver/plasma, read-out: L/P Ratio
[3] = liver, 20 mg/kg, rat, PO 20 mpk, read-out: Liver
[4] = plasma, 20 mg/kg, rat, PO 20 mpk vs IV 1 mpk
[5] = plasma, 20 mg/kg, rat, PO 20 mpk, read-out: Plasma
[6] = 40 mg/kg, rat, PO 40 mpk, liver/plasma, read-out: L/P Ratio
[7] = liver, 40 mg/kg, rat, PO 40 mpk, read-out: Liver
[8] = plasma, 40 mg/kg, rat, PO 40 mpk, read-out: Plasma

T1 sequence (P33261 whole entry): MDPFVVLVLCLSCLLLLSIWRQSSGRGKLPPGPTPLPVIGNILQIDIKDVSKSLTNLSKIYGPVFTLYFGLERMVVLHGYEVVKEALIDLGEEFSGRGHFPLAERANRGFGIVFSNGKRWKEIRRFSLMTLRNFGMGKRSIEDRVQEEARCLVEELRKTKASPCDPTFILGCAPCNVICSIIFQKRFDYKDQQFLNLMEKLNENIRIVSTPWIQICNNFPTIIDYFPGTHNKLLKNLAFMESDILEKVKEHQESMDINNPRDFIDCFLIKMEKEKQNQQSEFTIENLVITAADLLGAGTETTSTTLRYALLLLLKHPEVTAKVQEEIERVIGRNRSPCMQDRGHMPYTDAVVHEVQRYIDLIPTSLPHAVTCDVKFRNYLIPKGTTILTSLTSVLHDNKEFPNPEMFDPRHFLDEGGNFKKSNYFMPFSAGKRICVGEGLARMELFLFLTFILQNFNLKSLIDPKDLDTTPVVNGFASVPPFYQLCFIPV

Row | SMILES | Kp at 0.25 h [1, 2] | Kp at 1 h [1, 2] | concentration at 0.25 h [1, 3] [ng/g] | concentration at 1 h [1, 3] [ng/g] | concentration at 4 h [1, 3] [ng/g] | concentration at 8 h [1, 3] [ng/g] | concentration at 24 h [1, 3] [ng/g] | bioavailability [1, 4] [%] | concentration at 0.25 h [1, 5] [ng/mL] | concentration at 1 h [1, 5] [ng/mL] | concentration at 4 h [1, 5] [ng/mL] | concentration at 8 h [1, 5] [ng/mL] | concentration at 24 h [1, 5] [ng/mL] | concentration in liver, fold above the EC50 [1] | CYP (% negative controls) 2C19 (CYP 2C19) [% negative controls] | further results
1 | Cn1nc(C(=O)NC2CCN(CCN3CCCCC3)CC2)c2ccc(N3CCCCCC3)nc21 [EBP1047] | 78.3 | 558 | 382 | 14000 | 2670 | 563 | 5.35 | 9 | 5.1 | 24.1 | 10.4 | 2.9 | 0 | 2-60 fold |  | Kp at 4 h [1, 2]: 261; Kp at 8 h [1, 2]: 182; Liver Conc (range) ([1]; rat, PO 20 mpk, over the period given): 1 to 30 µM
2 | CCN1CCC(NC(=O)c2nn(C)c3nc(N4CCCCCC4)ccc23)CC1 [EBP1595] | 652 | 172 | 1900 | 12400 | 1400 | 132 | 0 | 9 | 1.6 | 96.4 | 14 | 0 | 0 | 2-32 fold |  | Kp at 4 h [1, 2]: 67
3 | Cn1nc(C(=O)NC2CCN(CCN3CCCC3)CC2)c2ccc(N3CCCCCC3)nc21 [EBP1597] |  |  |  |  |  |  |  |  |  |  |  |  |  | 2-18 fold |  | Kp at 0.25 h [1, 6]: 1670; Kp at 4 h [1, 6]: 717; Kp at 8 h [1, 6]: 582; Kp at 12 h ([1]; 40 mg/kg, rat, PO 40 mpk, 12 h, liver/plasma, read-out: L/P Ratio): 527; concentration at 0.25 h [1, 7]: 2620 ng/g; concentration at 4 h [1, 7]: 8120 ng/g; concentration at 8 h [1, 7]: 1500 ng/g; concentration at 12 h ([1]; liver, 40 mg/kg, rat, PO 40 mpk, 12 h, read-out: Liver): 1030 ng/g; liver concentration range at 12 h ([1]; liver, 40 mg/kg, rat, PO 40 mpk, over the period given, read-out: Liver Conc (range)): 2 to 18 µM; bioavailability ([1]; plasma, 40 mg/kg, rat, PO 40 mpk vs IV 1 mpk): 9%; concentration at 0.25 h [1, 8]: 1.6 ng/mL; concentration at 4 h [1, 8]: 10.3 ng/mL; concentration at 8 h [1, 8]: 2.6 ng/mL; concentration at 12 h ([1]; plasma, 40 mg/kg, rat, PO 40 mpk, 12 h, read-out: Plasma): 2.5 ng/mL; Liver Conc (range) ([1]; rat, PO 40 mpk, over the period given): 2 to 18 µM
4 | CC(C)N1CCC(NC(=O)c2nn(C)c3nc(N4CCCCCC4)ccc23)CC1 [EBP1604] | 618 | 275 | 915 | 4870 | 203 | 43 | 0 | 2 | 0.8 | 17.9 | 0 | 0 | 0 | up to 6 fold |  | Liver Conc (range) ([1]; rat, PO 20 mpk, over the period given, 20 mg/kg): 2 to 12 µM
5 | Cn1nc(C(=O)NC2CCNCC2)c2ccc(N3CCCCCC3)nc21.O=C(O)C(F)(F)F.O=C(O)C(F)(F)F [compound 697] |  |  |  |  |  |  |  |  |  |  |  |  |  |  | 78 | 
6 | CCC(CC)Oc1ccc2c(C(=O)NC3CCNCC3)n[nH]c2n1 [compound 726] |  |  |  |  |  |  |  |  |  |  |  |  |  |  | 74 | 
7 | Cn1nc(C(=O)NC2CCN(CCN3CCCCC3)CC2)c2ccc(N3CCCCCC3)nc21 [compound 1047] |  |  |  |  |  |  |  |  |  |  |  |  |  |  | 92 | 
8 | Cn1nc(CCCN2CCCC2)c2ccc(N3CCCCCCC3)nc21 [compound 1171] |  |  |  |  |  |  |  |  |  |  |  |  |  |  | 72 | 
